Several values for one entry are separate records, joined by “and”; a condition that tells them apart may be missing. Equal values may be shown once.
Tests used:
H1299 cells = test: MTT detection method, inhibitory effect against H1299 cells; type: cell-based
From the text: (§1) MTT detection method was used, and MTT is a yellow compound and a dye accepting hydrogen ions, and can be used as the respiratory chain in mitochondria of viable cells. Under the action of succinate dehydrogenase and cytochrome C, the tetrazolium ring broke to form blue formanzan crystal, and the formation amount of formanzan crystal was only directly proportional to the viable counts. The formanzan crystal formed by reduction can dissolve in dimethyl sulfoxide (DMSO), and the optical density (OD) value can be determined at 490 nm using ELISA, to reflect the viable counts.
(§2) • Lung cancer cell lines: A549 and H1299. • Experimental materials: lung cancer cell lines, instruments and tools for cell culture, MTT, the compound mother liquid (10 mmol/L), and the positive control drug Src inhibitor pp1. 1. Specific Method • (3-1) Cell lines A549 and H1299 were recovered, and when the cells were in good conditions, namely cells grew to about 80% after one passage (i.e. the logarithmic growth phase), the cells were planked (96-well plate). • (3-2) Firstly, cells were collected, and the concentration of cell suspension was adjusted with counting chamber. Cells were seeded in 96-well plate at 1000˜10000 cells/well, and the detailed cell numbers in each well were dependent on the growth rate of different cells and the action time of drugs. A549 cells were seeded at 5000 cells, while H1299 cells were also seeded at 5000 cells, 200 μl for each well (100 μl cell suspension+100 μl drug dilution at different concentration gradient). The edge wells (36) were added 200 μl culture media (for prevention of edge effect). • (3-3) After planking and adding drugs, the plate was treated at 24 h, 48 h, and 72 h, and then for coloration, each well was added 200 μl culture media containing 20 μl MTT solution (5 mg/mL). The plate was continually cultured for 1˜4 hours, the incubation was stopped, and the culture supernatant fluid in each well was carefully absorbed. For suspension cells, the culture supernatant fluid in each well need be centrifuged before drawing. 150 μl DMSO was added to each well, and the plate was shaken on a shaking table for 15˜20 min, to allow the crystals to be completely dissolved. • (3-4) Colorimetry: The colorimetry was performed by ELISA, and the optical absorption value of each well was tested at a wavelength of 490 nm or 570 nm, and the result was recorded. • (3-5) Calculation Inhibition ratio=(the control−the drug)/the control×100% • IC50 (50% inhibitory concentration) can be calculated by spass software based on the inhibitory ratio at different concentration. II. Experimental Results • A549 cells were treated at 4 h, 24 h, 48 h, 72 h, and the drug dose was divided into the light concentration group (10 μm, 25 μm, 40 μm) and the high concentration group (50 μm, 80 μm, 100 μm), that were seeded at 6000 cells/well and 5000 cells/well, respectively, to carry out the experiment.
H1299 cells were seeded at 5000 cells/well, and after treatment for 4 h, 24 h, 48 h, and 72 h, the results were shown in Tables 5-9 and FIGS. 5-8: […]

A549 cells = test: MTT detection method, inhibitory effect against A549 cells; type: cell-based
From the text: as §1, §2

Compound: CCCCn1nc(-c2ccc(OCCOCCOCCOCCOS(=O)(=O)c3ccc(C)cc3)cc2)c2c(N)ncnc21 [Compound 2, 2-(2-(2-(2-(4-(4-amino-1-n-butyl-1H-pyrazolo[3,4-d]pyrimidin-3-)phenoxy)ethoxy)ethoxy)ethoxy)ethyl 4-methylbenzenesulfonic Acid]
- The inhibitory ratio (%) for three parallel assays (H1299 cells; 4 h, 10 μm): 9% and 12% and 2%
- The mean inhibitory ratio (%) (H1299 cells; 4 h, 10 μm): 7%
- The inhibitory ratio (%) for three parallel assays (H1299 cells; 4 h, 25 μm): 12% and 15%
- The mean inhibitory ratio (%) (H1299 cells; 4 h, 25 μm): 13%
- The inhibitory ratio (%) for three parallel assays (H1299 cells; 4 h, 40 μm): 16% and 17%
- The mean inhibitory ratio (%) (H1299 cells; 4 h, 40 μm): 16%
- The inhibitory ratio (%) for three parallel assays (H1299 cells; 4 h, 50 μm): 14% and 13%
- The mean inhibitory ratio (%) (H1299 cells; 4 h, 50 μm): 14%
- The inhibitory ratio (%) for three parallel assays (H1299 cells; 4 h, 80 μm): 11% and 10%
- The mean inhibitory ratio (%) (H1299 cells; 4 h, 80 μm): 11%
- The inhibitory ratio (%) for three parallel assays (H1299 cells; 4 h, 100 μm): 13% and 17% and 12%
- The mean inhibitory ratio (%) (H1299 cells; 4 h, 100 μm): 14%
- The inhibitory ratio (%) for three parallel assays (H1299 cells; 24 h, 10 μm): 10% and 9% and 13%
- The mean inhibitory ratio (%) (H1299 cells; 24 h, 10 μm): 11%
- The inhibitory ratio (%) for three parallel assays (H1299 cells; 24 h, 25 μm): 26% and 23% and 25%
- The mean inhibitory ratio (%) (H1299 cells; 24 h, 25 μm): 25%
- The inhibitory ratio (%) for three parallel assays (H1299 cells; 24 h, 40 μm): 36% and 35% and 37%
- The mean inhibitory ratio (%) (H1299 cells; 24 h, 40 μm): 36%
- The inhibitory ratio (%) for three parallel assays (H1299 cells; 24 h, 50 μm): 44% and 45% and 41%
- The mean inhibitory ratio (%) (H1299 cells; 24 h, 50 μm): 43%
- The inhibitory ratio (%) for three parallel assays (H1299 cells; 24 h, 80 μm): 42% and 41%
- The mean inhibitory ratio (%) (H1299 cells; 24 h, 80 μm): 42%
- The inhibitory ratio (%) for three parallel assays (H1299 cells; 24 h, 100 μm): 40%
- The mean inhibitory ratio (%) (H1299 cells; 24 h, 100 μm): 40%
- The inhibitory ratio (%) for three parallel assays (H1299 cells; 48 h, 10 μm): 16% and 20% and 21%
- The mean inhibitory ratio (%) (H1299 cells; 48 h, 10 μm): 19%
- The inhibitory ratio (%) for three parallel assays (H1299 cells; 48 h, 25 μm): 37% and 36%
- The mean inhibitory ratio (%) (H1299 cells; 48 h, 25 μm): 37%
- The inhibitory ratio (%) for three parallel assays (H1299 cells; 48 h, 40 μm): 57%
- The mean inhibitory ratio (%) (H1299 cells; 48 h, 40 μm): 57%
- The inhibitory ratio (%) for three parallel assays (H1299 cells; 48 h, 50 μm): 61%
- The mean inhibitory ratio (%) (H1299 cells; 48 h, 50 μm): 61%
- The inhibitory ratio (%) for three parallel assays (H1299 cells; 48 h, 80 μm): 64% and 63% and 62%
- The mean inhibitory ratio (%) (H1299 cells; 48 h, 80 μm): 63%
- The inhibitory ratio (%) for three parallel assays (H1299 cells; 48 h, 100 μm): 65% and 64% and 63%
- The mean inhibitory ratio (%) (H1299 cells; 48 h, 100 μm): 64%
- The inhibitory ratio (%) for three parallel assays (H1299 cells; 72 h, 10 μm): 28% and 24% and 27%
- The mean inhibitory ratio (%) (H1299 cells; 72 h, 10 μm): 26%
- The inhibitory ratio (%) for three parallel assays (H1299 cells; 72 h, 25 μm): 44% and 43% and 42%
- The mean inhibitory ratio (%) (H1299 cells; 72 h, 25 μm): 43%
- The inhibitory ratio (%) for three parallel assays (H1299 cells; 72 h, 40 μm): 65% and 64%
- The mean inhibitory ratio (%) (H1299 cells; 72 h, 40 μm): 65%
- The inhibitory ratio (%) for three parallel assays (H1299 cells; 72 h, 50 μm): 73% and 74%
- The mean inhibitory ratio (%) (H1299 cells; 72 h, 50 μm): 74%
- The inhibitory ratio (%) for three parallel assays (H1299 cells; 72 h, 80 μm): 80% and 78%
- The mean inhibitory ratio (%) (H1299 cells; 72 h, 80 μm): 80%
- The inhibitory ratio (%) for three parallel assays (H1299 cells; 72 h, 100 μm): 84% and 83% and 81%
- The mean inhibitory ratio (%) (H1299 cells; 72 h, 100 μm): 83%
- The inhibitory ratio (%) for three parallel assays (A549 cells; 4 h, 10 μm): 25.00% and 30.31% and 29.06%
- The mean inhibitory ratio (%) (A549 cells; 4 h, 10 μm): 28.13%
- The inhibitory ratio (%) for three parallel assays (A549 cells; 4 h, 25 μm): 14.38% and 17.19% and 13.44%
- The mean inhibitory ratio (%) (A549 cells; 4 h, 25 μm): 15.00%
- The mean inhibitory ratio (%) (A549 cells; 4 h, 40 μm): 14.17%
- The inhibitory ratio (%) for three parallel assays (A549 cells; 4 h, 50 μm): 34.57%
- The mean inhibitory ratio (%) (A549 cells; 4 h, 50 μm): 34.57%
- The inhibitory ratio (%) for three parallel assays (A549 cells; 4 h, 80 μm): 34.86% and 36.86% and 35.14%
- The mean inhibitory ratio (%) (A549 cells; 4 h, 80 μm): 35.62%
- The inhibitory ratio (%) for three parallel assays (A549 cells; 4 h, 100 μm): 39.43% and 38.29% and 35.71%
- The mean inhibitory ratio (%) (A549 cells; 4 h, 100 μm): 37.81%
- The inhibitory ratio (%) for three parallel assays (A549 cells; 24 h, 10 μm): 16.09% and 20.22% and 12.83%
- The mean inhibitory ratio (%) (A549 cells; 24 h, 10 μm): 16.38%
- The inhibitory ratio (%) for three parallel assays (A549 cells; 24 h, 25 μm): 20.43% and 18.48% and 18.70%
- The mean inhibitory ratio (%) (A549 cells; 24 h, 25 μm): 19.20%
- The inhibitory ratio (%) for three parallel assays (A549 cells; 24 h, 40 μm): 18.48% and 24.35% and 23.91%
- The mean inhibitory ratio (%) (A549 cells; 24 h, 40 μm): 22.25%
- The inhibitory ratio (%) for three parallel assays (A549 cells; 24 h, 50 μm): 71.46% and 71.25% and 71.04%
- The mean inhibitory ratio (%) (A549 cells; 24 h, 50 μm): 71.25%
- The inhibitory ratio (%) for three parallel assays (A549 cells; 24 h, 80 μm): 75.63% and 75.83% and 74.79%
- The mean inhibitory ratio (%) (A549 cells; 24 h, 80 μm): 75.42%
- The inhibitory ratio (%) for three parallel assays (A549 cells; 24 h, 100 μm): 73.75% and 75.83% and 74.58%
- The mean inhibitory ratio (%) (A549 cells; 24 h, 100 μm): 74.72%
- The inhibitory ratio (%) for three parallel assays (A549 cells; 48 h, 10 μm): 24.84% and 31.41% and 29.22%
- The mean inhibitory ratio (%) (A549 cells; 48 h, 10 μm): 28.49%
- The inhibitory ratio (%) for three parallel assays (A549 cells; 48 h, 25 μm): 32.66% and 36.72% and 31.56%
- The mean inhibitory ratio (%) (A549 cells; 48 h, 25 μm): 33.65%
- The inhibitory ratio (%) for three parallel assays (A549 cells; 48 h, 40 μm): 47.97% and 47.66% and 49.06%
- The mean inhibitory ratio (%) (A549 cells; 48 h, 40 μm): 48.23%
- The inhibitory ratio (%) for three parallel assays (A549 cells; 48 h, 50 μm): 82.83% and 81.50% and 80.33%
- The mean inhibitory ratio (%) (A549 cells; 48 h, 50 μm): 81.56%
- The inhibitory ratio (%) for three parallel assays (A549 cells; 48 h, 80 μm): 82.67% and 83.00% and 82.83%
- The mean inhibitory ratio (%) (A549 cells; 48 h, 80 μm): 82.83%
- The inhibitory ratio (%) for three parallel assays (A549 cells; 48 h, 100 μm): 83.17% and 83.00% and 82.83%
- The mean inhibitory ratio (%) (A549 cells; 48 h, 100 μm): 83.00%
- The inhibitory ratio (%) for three parallel assays (A549 cells; 72 h, 10 μm): 30.00% and 29.46%
- The mean inhibitory ratio (%) (A549 cells; 72 h, 10 μm): 29.64%
- The inhibitory ratio (%) for three parallel assays (A549 cells; 72 h, 25 μm): 48.74% and 47.21% and 50.00%
- The mean inhibitory ratio (%) (A549 cells; 72 h, 25 μm): 48.65%
- The inhibitory ratio (%) for three parallel assays (A549 cells; 72 h, 40 μm): 68.92% and 70.36% and 70.63%
- The mean inhibitory ratio (%) (A549 cells; 72 h, 40 μm): 69.97%
- The inhibitory ratio (%) for three parallel assays (A549 cells; 72 h, 50 μm): 88.11% and 87.97% and 88.38%
- The mean inhibitory ratio (%) (A549 cells; 72 h, 50 μm): 88.15%
- The inhibitory ratio (%) for three parallel assays (A549 cells; 72 h, 80 μm): 88.51% and 88.38%
- The mean inhibitory ratio (%) (A549 cells; 72 h, 80 μm): 88.47%
- The inhibitory ratio (%) for three parallel assays (A549 cells; 72 h, 100 μm): 88.38% and 88.65% and 88.51%
- The mean inhibitory ratio (%) (A549 cells; 72 h, 100 μm): 88.51%

From US10611771B2, “Pyrazolo [3,4-d] pyrimidine derivative” (WEST CHINA HOSPITAL, SICHUAN UNIVERSITY, priority 2016, dated 2020)
